Test results reported in publication PMC6052416, “Selective inhibition of carbonic anhydrase-IX by sulphonamide derivatives induces pH and reactive oxygen species-mediated apoptosis in cervical cancer HeLa cells” (Journal of Enzyme Inhibition and Medicinal Chemistry, 2018).
Like-named read-outs stand apart in the source and are kept apart here.

Key:
[1] = system: HeLa (cervix adenoma cancer cell); test: WST-1 cytotoxicity, HeLa; type: cell-based, human
Method: (§1) Cancer and normal cell lines were purchased from ATCC and stored in liquid nitrogen. HT-29 (colon adenoma cancer), HeLa (cervix adenoma cancer cell), MDA-MB-231 (breast adenoma cancer cell), HEK-293 (embryonic kidney epithelial cell) and PNT-1A (normal prostate cells) cell lines were incubated in DMEM: F-12 and RPMI-1640, including 10% foetal bovine serum (FBS), 100 µg/mL streptomycin/100 IU/mL penicillin, at 37 °C in an incubator containing 5% CO2, 95% air in a humid atmosphere.
(§2) The cytotoxic effects of the substances were evaluated with WST-1 kits (Roche, Germany) in accordance with the manufacturer’s protocols. The cells were planted in 96-well plates (10^4 cells in each well). After incubation for 24 h, the media were discarded and the substances and 5-Fu as the control drug, at doses of 0, 2.5, 5, 10, 25, 50, 100 and 200 µM, were incubated for 24, 48 and 72 h. WST-1 reactive of 10 µL was added to all wells. Following 4-h incubation, the measurements were taken on a plate reader (Spectramax M5) at wavelengths of 450 and 630 nm. Graphs were then created and the IC50 value of each substance was calculated.

[2] = system: HT-29 (colon adenoma cancer); test: WST-1 cytotoxicity, HT-29; type: cell-based, human
Method: as §1, §2

[3] = system: MDA-MB-231 (breast adenoma cancer cell); test: WST-1 cytotoxicity, MDA-MB-231; type: cell-based, human
Method: as §1, §2

[4] = system: HEK-293 (embryonic kidney epithelial cell); test: WST-1 cytotoxicity, HEK-293; type: cell-based; conditions: normal cell
Method: as §1, §2

[5] = system: PNT-1A (normal prostate cells); test: WST-1 cytotoxicity, PNT-1A; type: cell-based; conditions: normal cell
Method: as §1, §2

hCA IX = target: hCA IX; set-up: method as in PMID 25913118, PMID 26803577; conditions: cited from earlier work
hCA XII = target: hCA XII; set-up: method as in PMID 25913118, PMID 26803577; conditions: cited from earlier work
[6] = WST-1, 24 h, mean of three experiments, read-out: IC50 HeLa 24 h
[7] = WST-1, 48 h, read-out: IC50 HeLa 48 h
[8] = WST-1, 72 h, read-out: IC50 HeLa 72 h
[9] = WST-1, 24 h, read-out: IC50 HT-29 24 h
[10] = WST-1, 48 h, read-out: IC50 HT-29 48 h
[11] = WST-1, 72 h, read-out: IC50 HT-29 72 h
[12] = WST-1, 48 h, read-out: IC50 MDA-MB-231 48 h
[13] = WST-1, 72 h, read-out: IC50 MDA-MB-231 72 h
[14] = WST-1, 24 h, read-out: IC50 HEK-293 24 h
[15] = WST-1, 48 h, read-out: IC50 HEK-293 48 h
[16] = WST-1, 72 h, read-out: IC50 HEK-293 72 h
[17] = WST-1, 24 h, read-out: IC50 PNT-1A 24 h
[18] = WST-1, 48 h, read-out: IC50 PNT-1A 48 h
[19] = WST-1, 72 h, read-out: IC50 PNT-1A 72 h

Compound | IC50 [1, 6] [µM] | IC50 [1, 7] [µM] | IC50 [1, 8] [µM] | IC50 [2, 9] [µM] | IC50 [2, 10] [µM] | IC50 [2, 11] [µM] | IC50 ([3]; WST-1, 24 h, read-out: IC50 MDA-MB-231 24 h) [µM] | IC50 [3, 12] [µM] | IC50 [3, 13] [µM] | IC50 [4, 14] [µM] | IC50 [4, 15] [µM] | IC50 [4, 16] [µM] | IC50 [5, 17] [µM] | IC50 [5, 18] [µM] | IC50 [5, 19] [µM] | Ki (hCA IX) [µM] | Ki (hCA XII) [µM]
O=c1[nH]cc(F)c(=O)[nH]1 [Compound 5-FU, reference compound] | 37.8 ± 4.3 | 31.2 ± 2.3 | 14.7 ± 0.6 | 47.3 ± 1.2 | 23.4 ± 2.1 | 19.3 ± 1.2 | 42.6 ± 2.56 | 37.9 ± 12.3 | 21 ± 4.3 | 44.6 ± 7.2 | 19.8 ± 2.3 | 14.5 ± 3.2 | 23.1 ± 4.55 | 21.2 ± 2.2 | 17.5 ± 7.6 | – | –
COc1ccc(C=NCCc2ccc(S(N)(=O)=O)cc2)cc1 [Compound 7] | – | – | – | – | – | – | – | 123 ± 12.3 | 98.2 ± 11.2 | 120 ± 13.8 | 98.3 ± 11.2 | 85.4 ± 11.2 | – | 190 ± 8.6 | 130 ± 32.2 | 0.231 | –
COc1ccc(C=Nc2ccc(S(N)(=O)=O)cc2)cc1 [Compound 6] | – | 198 ± 14.3 | 123 ± 11.1 | – | – | 187 ± 23.4 | – | – | – | – | – | 100 ± 22.2 | 154 ± 16.5 | 120 ± 11.2 | 76.4 ± 13.3 | 0.883 | 0.0112
Cc1cccc(C=NCCc2ccc(S(N)(=O)=O)cc2)c1O [Compound 2] | 27.1 ± 1.3 | 49.6 ± 0.8 | – | – | – | – | – | – | – | 114 ± 3.44 | – | 75.2 ± 5.6 | – | – | – | 0.295 | –
Cc1ccc(C=Nc2ccc(S(N)(=O)=O)cc2)cc1 [Compound 5] | – | 182 ± 12.2 | – | – | – | – | – | 74.7 ± 12.4 | – | – | – | 170 ± 11.2 | – | – | – | 0.0237 | 0.0099
Cc1cccc(C=Nc2ccc(S(N)(=O)=O)cc2)c1O [Compound 3] | 36.3 ± 0.2 | 29.8 ± 2.3 | – | – | – | – | – | 80.6 ± 12.4 | 96.7 ± 33.4 | 196 ± 14.3 | – | 37.9 ± 3.6 | – | – | – | 0.465 | –
Cc1ccc(C=NCCc2ccc(S(N)(=O)=O)cc2)cc1 [Compound 4] | – | – | – | 33 ± 2.3 | 23.7 ± 2.2 | 119 ± 23.2 | – | – | 178 ± 11.2 | – | – | 96.2 ± 12.2 | – | – | – | 0.123 | –
